B1: MBP: myelin basic protein, a negative control (protein, UniProt P02686 1-304, looked up)
Myelin basic protein: MGNHAGKRELNAEKASTNSETNRGESEKKRNLGELSRTTSEDNEVFGEADANQNNGTSSQDTAVTDSKRTADPKNAWQDAHPADPGSRPHLIRLFSRDAPGREDNTFKDRPSESDELQTIQEDSAATSESLDVMASQKRPSQRHGSKYLATASTMDHARHGFLPRHRDTGILDSIGRFFGGDRGAPKRGSGKDSHHPARTAHYGSLPQKSHGRTQDENPVVHFFKNIVTPRTPPPSQGKGRGLSLSRFSWGAEGQRPGFGYGGRASDYKSAHKGFKGVDAQGTLSKIFKLGGRDSRSGSPMARR

Columns and labels:
[1] = test system: mIL-5 mRNA in primary LN cells; test: mIL-5 mRNA by real-time PCR in stimulated LN cells of immunized (SJL/J×BALB/C)F1 mice (Example I); assay type: cell-based, mouse; conditions: for mIL-5 mRNA Level: Experiment 1, GA-immunized (SJL/J×BALB/C)F1; for mIL-5 mRNA: not normalized to a reference gene
Experimental: For each of the three experiments summarized in Table 1, female (SJL/J×BALB/C) F1 hybrid (Jackson Laboratory) mice were immunized by footpad injection with either 250 μg GMA (Mylan Pharmaceuticals, Inc.) and CFA (Sigma Aldrich), or Mannitol and CFA (as a negative control). The GA solution was diluted to 5 mg/mL with Dulbecco's Phosphate-buffered saline. A dose solution was then prepared by mixing the diluted GA solution (5 mg/mL) and CFA (1:1) until well-emulsified. Each mouse received a total injection volume of 0.1 mL (250 μg GA). Animals were immunized on Day 0. Immunized animals were sacrificed via cervical dislocation on Day 10 following immunization. […] The LN were washed 3 times with −5 mL of RPMI medium, and the LN cells isolated by pressing the LN with a syringe plunger. […] The cell suspension was centrifuged at about 200×g for 10 minutes at about 4° C. and re-suspended in ice cold enriched DCCM-1 medium. The LN cells (2.5×10^6 cells/cm^2) were plated in the wells of a 48-well tissue culture plate and stimulated with GA or controls.
Expression of cytokine mRNA was quantitatively analyzed using a Real-Time PCR system (7500, Applied Biosystems).
(DCCM1 from Beit Haemek Ltd.; Cat. No. 05 010 1A). There was no MBP treatment for the 2-hour groups.
Group 1B animals were female (SJL/J×BALB/C) F1 hybrid (Jackson Laboratory) mice immunized by footpad injection with either 250 μg GA and CFA, or Mannitol and CFA (as a negative control). A dose solution was prepared by mixing a diluted GA solution (5 mg/mL) and CFA (1:1). Each mouse received a total injection volume of […] (250 μg GA). Animals were immunized on Day 0. Immunized animals were sacrificed via cervical dislocation on Day 10 following immunization. Lymph nodes from immunized mice were removed and isolated. LN cells (2.5×10^6 cells/cm^2) were plated in the wells of a 48-well tissue culture plate for stimulation with GA.
Expression of cytokine mRNA was quantitatively analyzed 4 and 6 hours after using a Real-Time PCR system (7500, Applied Biosystems).

[2] = test system: mouse IL-13 mRNA in primary LN cells; test: Validation: mouse IL-13 mRNA by real-time PCR in LN cells of GA-immunized SJL/J mice (Example IV); assay type: cell-based; conditions: for IL-13 mRNA Fold Change: normalized to GAPDH; for induction of IL-13 mRNA: 20 μg/mL, 6 hours
Experimental: Three experiments were conducted using one batch of GA (Mylan GMA). The primary LN cells were stimulated by incubation with 6 concentrations (0.3 to 20 μg/mL) of the GA for 6 hours at 37° C. Total RNA was isolated from LN cells stimulated with GA or controls. cDNA was synthesized from the RNA and the mRNA levels of seven mouse cytokines, IL-2, IL-4, IL-5, IL-10, IL-13, interferon (IFN)-γ and tumor necrosis factor (TNF)-α, were quantitatively measured by a real-time PCR method.
Female SJL/J mice at 8-9 weeks of age were immunized by injection into four footpads using a 1 mL syringe with a 27-G, ½-inch needle. Each mouse received a total injection volume of 0.1 mL of GMA emulsified in CFA (about 10 μL into each of the front footpads and 40 μL into each of the hind footpads). Animals were immunized on Day 0. After injection, animals were placed back in their cages and housed ≤6 animals per cage.
Immunized animals were sacrificed by cervical dislocation on Day 10 following immunization. […] After centrifugation at about 200×g for 10 minutes at 4° C., the cell pellet was re-suspended in 40 mL of DCCM-1 medium for cell counting. A Trypan blue exclusion method was used to determine the cell density of viable cells in the suspension. After cell counting, the LN cells were suspended in enriched DCCM-1 medium at density of 7.5×10^6 cells/mL. LN cells (0.12 mL) were plated into each well of 96-well tissue culture plates.
Dilutions of GA (Mylan GMA) were prepared using enriched DCCM-1 medium as the diluent. GA dilutions (0.12 mL) were added in the assigned wells of 96-well tissue culture plates. The same volume of LN cells (0.12 mL) isolated from immunized animals was added to the assigned wells. A positive control and a negative control were always performed in the same assay by treating LN cells with 2.5 μg/mL ConA and 10 μg/mL MBP, respectively. The LN cells with mock stimulation protocols (enriched DCCM-1 medium) were used to monitor the background mRNA level of a cytokine. The plates were incubated at 37° C. in a humidified 5% CO2 incubator for 6 hr.
At the end of incubation time, culture medium from stimulated cells was removed by aspiration and the cells were lysed using Qiagen or Promega lysis buffer. The lysate was transferred to an RNeasy Mini column (Qiagen) or wells of the SV 96 Binding Plate (Promega) for RNA isolation and cDNA synthesis. All tested samples were run in triplicate.
The SV 96 Total RNA Isolation System (Promega; Cat. No. Z3505) was used for total RNA isolation. Assay procedures were carried out according to each manufacturer's protocol. RNA samples were stored at −70° C. until use. […] The assay procedure was carried out according to the manufacturer's protocol.
The plate was centrifuged at 2000 rpm for 2 minutes at 4° C. to spin down the contents and eliminate air bubbles. Samples were prepared and run in a 96-well plate using a Life Technologies Real-Time PCR system (previously Applied Biosystems; Model No. 7500) according to the manufacturer's recommendation. The mix for the reference gene was prepared in the same way using the reference gene primer.
A relative quantitation method was used to analyze changes in mIL-2, mIL-4, mIL-5, mIL-10, mIL-13, mIFN-γ and TNF-α expression in GA treated samples relative to the untreated control (Enriched DCCM-1 treated) samples using the following program:
Levels of mouse cytokine amplicons were normalized to an internal probe level (GAPDH) from the same samples. The following equations were used to calculate the relative increase in response to GA stimulation compared to the control sample (Enriched DCCM1 sample): […]

[3] = 2 hour post stimulation, GA 10, ConA 2.5 μg/mL
[4] = 4 hour post stimulation, GA 10, MBP 10, ConA 2.5 μg/mL
[5] = 6 hour post stimulation, GA 10, MBP 10, ConA 2.5 μg/mL
[6] = 24 hour post stimulation, GA 10, MBP 10, ConA 2.5 μg/mL
[7] = Group 1B (GA + CFA), 4 hours post-stimulation, GA 10, MBP 10, ConA 2.5 μg/mL
[8] = Group 1B (GA + CFA), 6 hours post-stimulation, GA 10, MBP 10, ConA 2.5 μg/mL
[9] = Group 2B (Mannitol + CFA), 4 hours post-stimulation, GA 10, MBP 10, ConA 2.5 μg/mL
[10] = Group 2B (Mannitol + CFA), 6 hours post-stimulation, GA 10, MBP 10, ConA 2.5 μg/mL

Molecule | mIL-5 mRNA Level [1, 3] | mIL-5 mRNA Level [1, 4] | mIL-5 mRNA Level [1, 5] | mIL-5 mRNA Level [1, 6] | mIL-5 mRNA [1, 7] | mIL-5 mRNA [1, 8] | mIL-5 mRNA [1, 9] | mIL-5 mRNA [1, 10] | IL-13 mRNA Fold Change ([2]; Experiment 1, 2.5 μg/mL) | IL-13 mRNA Fold Change ([2]; Experiment 2, 2.5 μg/mL) | IL-13 mRNA Fold Change ([2]; Experiment 3, 2.5 μg/mL) | mIL-5 mRNA level increase vs DCCM-1-stimulated control ([1]; Group 1B, 4 and 6 hours (text summary of Table 10)) | induction of IL-13 mRNA ([2]; SJL/J, Exp 1) | induction of IL-13 mRNA ([2]; SJL/J, Exp 2) | induction of IL-13 mRNA ([2]; SJL/J, Exp 3) | induction of IL-13 mRNA (in words) ([2]; SJL/J, different concentrations of GA vs unstimulated LN cells) | IL-13 mRNA Fold Change ([2]; Experiment 1, 10 μg/mL) | IL-13 mRNA Fold Change ([2]; Experiment 2, 10 μg/mL) | IL-13 mRNA Fold Change ([2]; Experiment 3, 10 μg/mL) | IL-13 mRNA expression level in response to MBP treatment ([2]; SJL/J, MBP 10 μg/mL, all PCR runs)
Concanavalin A [ConA, reference compound] | 3.6 fold change vs control | 17.1 fold change vs control | 13.1 fold change vs control | 0.5 fold change vs control | 20.4 fold change vs control | 26.7 fold change vs control | 16.6 fold change vs control | 36.5 fold change vs control | 40.9 fold | 32.4 fold | 50.9 fold | – | – | – | – | – | – | – | – | –
L-glutamic acid polymer with L-alanine, L-lysine and L-tyrosine, acetate (salt) [GA] | 1.6 fold change vs control | 4.8 fold change vs control | 5.1 fold change vs control | 1.9 fold change vs control | 4.0 fold change vs control | 4.3 fold change vs control | 1.0 fold change vs control | 1.2 fold change vs control | – | – | – | at least 4 fold | 17.6 fold | 21.3 fold | 33.9 fold | robust induction | – | – | – | –
B1 | – | 0.8 fold change vs control | 0.2 fold change vs control | 0.8 fold change vs control | 1.4 fold change vs control | 0.9 fold change vs control | 1.1 fold change vs control | 1.1 fold change vs control | – | – | – | – | – | – | – | – | 0.9 fold | 1.4 fold | 1.2 fold | ≤ 2 fold

Reference: patent publication US10344330B2, “Glatiramer acetate response biomarker mRNA potency assay” (Mylan Inc., priority 2013, dated 2019)
